Assay results published in patent US20230096601A1, “BORTEZOMIB COMPOSITIONS” (MAIA Pharmaceuticals, Inc., priority 2021, published 2023).
In brackets after ≈: the same amount, converted by molar mass.

Experiments:
[1] = Formulation trials with low concentrations of benzyl alcohol / DMSO in water: visual dissolution and physical stability; type: physicochemical; conditions: benzyl alcohol (2% v/v), DMSO (5% v/v) or combination added to bortezomib, then water; mixing >3 hours
Description: Initial formulation experiments with low concentrations of various non-aqueous solvents were conducted targeting a bortezomib concentration of 2.5 mg/mL. Attempts to solubilize bortezomib were conducted using low concentrations of benzyl alcohol (2% v/v), or dimethyl sulfoxide (5% v/v), or a combination of these solvents. […] For these formulations, the non-aqueous solvent was added to bortezomib to dissolve it, followed by addition of water to the bortezomib-solvent mixture.
Various concentrations of DMSO were explored as the non-aqueous component of the formulation (2% v/v to 5% v/v in water). Bortezomib was first completely dissolved in the batch volume of DMSO to form a concentrated “premix” solution prior to making up the batch to the target concentration (2.5 mg/mL) with water. This was done to facilitate the subsequent dissolution of bortezomib in the aqueous component.

[2] = Equilibrium solubility by HPLC, bortezomib added directly to solvent system; type: physicochemical; conditions: buffered aqueous solutions, aqueous buffer, thermodynamic from solid; pH range of 4 to 7
Description: Because pH appeared to influence chemical stability, sodium acetate or sodium phosphate were included in these matrixes as buffers, and the effect of pH on solubility was also assessed.
The components were mixed (by shaking the glass container), and the mixture was observed. […] The suspension was allowed to equilibrate for 24 hours at room temperature while being protected from light. After the incubation, the solution phase was removed from the container into a clean vial by filtration through a 0.45 micron syringe filter, and the filtrate was assayed for bortezomib content using an HPLC procedure, and a bortezomib standard.

[3] = Solubility by HPLC, bortezomib premixed with nonaqueous solvent before addition to aqueous component; type: physicochemical; conditions: aqueous with cosolvent or surfactant or cyclodextrin, kinetic from dmso stock; premix in non-aqueous solvent, aqueous system with 25 mg/mL mannitol
Description: This example was carried out to determine the solubility of bortezomib in particular solvents and solvent systems when the bortezomib is first dissolved in (the batch quantity) of a non-aqueous solvent to form a concentrated solution (“premix”), prior to adding the premix to the aqueous component(s). A bortezomib sample (between 10 and 50 mg) was placed in a suitable glass container and added to a defined volume of a nonaqueous solvent system (if used) as defined below in Table 4, to create a concentrated premix. The premix was subsequently added to enough buffered aqueous solvent to make a final volume of 5 mL, as defined below in Table 4.
The resulting formulation was allowed to equilibrate for 24 hours at room temperature, protected from light. Solubility was determined by filtration through a 0.45 micron filter, and assay of the filtrate for bortezomib content using an HPLC procedure, and a bortezomib standard. One mL aliquots of the filtrate (saturated solution) were subjected to three freeze-thaw cycles of 24 hours at −20° C. and 24 hours at 25° C. each, with visual examination after each cycle. Absence of precipitation after the three cycles was used as an index of physical stability of the formulation upon long-term storage.

[4] = Accelerated / room temperature stability testing at 25° C./60% RH, HPLC assay and impurities (percent of nominal bortezomib concentration); type: physicochemical
Description: The compositions described herein are storage stable aqueous liquid ready-to-use compositions. The degradation of the active ingredient, as well as the formation of various impurities is controlled by the composition to a minimal level. Stability testing was performed at the long-term stability condition (2-8° C.) as well as the accelerated stability condition (25±2° C./60±5% RH) for refrigerated products. At each time point, the bortezomib content (assay) and the impurity profile was determined using an HPLC procedure, and a bortezomib reference standard. The HPLC method utilizes a reverse phase column with an aqueous formic acid/acetonitrile and aqueous formic acid/methanol mobile phase gradient and UV/PDA detector at a wavelength of about 270 nm.
The effect of pH on bortezomib formulations using a low concentration of DMSO in water (4.5% v/v DMSO for the 2.5 mg/mL strength and 1% v/v DMSO for the 1 mg/mL strength) was then assessed. In each case, the bortezomib was first fully dissolved in the batch quantity of DMSO to form a concentrated premix solution, which was then added to water, and the pH adjusted with sodium hydroxide and/or hydrochloric acid to pH ranging from 4 to 8.5. […] Because oxidative degradation is a significant degradation pathway for bortezomib, filled vials were overlayed with nitrogen. These batches were placed on stability at accelerated (25° C.) and long-term storage conditions (2-8° C.). […] Although the 2.5 mg/mL formulations were not physically stable at 25° C., chemical stability, based on analysis after 2 months at 25° C., stability was poor at pH 4 and pH 8.5 for both strengths, with good stability being observed at pH 5.5 for the 2.5 mg/mL strength and pH 5.5 and 7 for the 1 mg/mL strength.
The preparation of the concentrated bortezomib premix is performed. The batch quantity of bortezomib is added to a suitable glass container. The batch quantity of the non-aqueous solvent is then added to the bortezomib, and mixed until the bortezomib is completely dissolved. The initial aqueous component is separately prepared by dissolving the other excipients such as buffer, optionally a solubilizer and/or stabilizer, or a tonicity adjuster, in water for injection, which optionally has been degassed by sparging nitrogen through it and adjusting to the desired pH using appropriate pH adjusting agent, if needed. The aqueous component is typically prepared at about double the corresponding concentration(s) in the final formulation; this was typically accomplished by dissolving the excipients in approximately half the batch volume of water. The bortezomib premix is then added to the (concentrated) aqueous component, and mixed. Water is then added to make up to about 80-90% of the batch volume and a final pH adjustment is performed to the target pH using appropriate pH adjusting agent, if needed. After final pH adjustment, the batch is made up to the target batch volume. The batch is then sterile filtered using a 0.2 micron filter, filled into (2-mL, or 3-mL, or 5-mL) USP Type I, optionally amber, glass vials, stoppered with (13-mm or 20-mm) fluoropolymer-coated chlorobutyl rubber stoppers, and sealed with (13-mm or 20-mm) aluminum caps. The fill volume used is typically 3.5 mL for the 1 mg/mL formulations or 1.4 mL for the 2.5 mg/mL formulations (to contain 3.5 mg bortezomib per vial). Because bortezomib is known to be oxidation and light sensitive, compounding and filling is typically carried out in a glove box equilibrated with nitrogen at various residual oxygen levels (typically less than 5%). Light exposure is minimized.
The stability testing under accelerated conditions (25° C. and 60% relative humidity for at least 6 months) of these formulations is presented in Table 6.

[5] = cited from earlier work
physchem = conditions: thermodynamic from solid
Description: The solubility of bortezomib in select non-aqueous solvents was determined to understand if any of these solvents may be useful (as a co-solvent with water) at low concentrations in the final formulation.
Approximately 25 mg of bortezomib was added to a suitable container. An initial volume of 0.5 mL of the non-aqueous solvent was added and the mixture stirred for 5 minutes. The appearance of the solution was recorded. […] If the bortezomib was not fully dissolved, additional volume of solvents were added in 0.25 mL increments with mixing for 5 minutes after each addition, and recording the appearance of the solution, until the bortezomib was fully dissolved, up to a total volume of 10 mL.

In the case of `CC(C)C[C@H](NC(=O)[C@H](Cc1ccccc1)NC(=O)c1cnccn1)B(O)O` [Bortezomib, [(1R)-3-methyl-1-[[(2S)-1-oxo-3-phenyl-2-[(pyrazinylcarbonyl)amino]propyl]amino]butyl] boronic acid], the “dissolution at target 2.5 mg/mL” value [1] is reported as “precipitated after addition of water”, the solubility at 24 h [2] is reported as under 500 µg/mL and the solubility at 24 h [3] is reported as over 4000 µg/mL. The “Total Impurities after 2 months at 25° C. (%)” value (“Total Impurities … (%)” for short) ([4]; 1 mg/mL bortezomib, 1% (v/v) DMSO in water, pH 4) was 7.83%, the “Total Impurities … (%)” value ([4]; 1 mg/mL bortezomib, 1% (v/v) DMSO in water, pH 5.5) was 0.52% and the “Total Impurities … (%)” value ([4]; 1 mg/mL bortezomib, 1% (v/v) DMSO in water, pH 7) was 1.18%. For the same molecule, the “Total Impurities … (%)” value ([4]; 1 mg/mL bortezomib, 1% (v/v) DMSO in water, pH 8.5) was 12.48%, the “Total Impurities … (%)” value ([4]; 2.5 mg/mL bortezomib, […] (v/v) DMSO in water, pH 4) was 13.71% and the “Total Impurities … (%)” value ([4]; 2.5 mg/mL bortezomib, […] (v/v) DMSO in water, pH 5.5) was 1.07%. For the same molecule, the “Total Impurities … (%)” value ([4]; 2.5 mg/mL bortezomib, […] (v/v) DMSO in water, pH 7) was 5.91%, the “Total Impurities … (%)” value ([4]; 2.5 mg/mL bortezomib, […] (v/v) DMSO in water, pH 8.5) was 31.59% and the “solubility of bortezomib in water or buffered aqueous solutions reported by the suppliers” value [5] was under 100 µg/mL. It also gave a solubility at 5 min (physchem; N-methyl pyrrolidone (NMP), organic solvent or mixture) of over 25000 µg/mL, a solubility at 5 min (physchem; benzyl alcohol, organic solvent or mixture) of over 50000 µg/mL and a solubility at 5 min (physchem; dimethyl sulfoxide (DMSO), organic solvent or mixture) of over 50000 µg/mL. The solubility at 5 min (physchem; ethanol, organic solvent or mixture) was about 4500 µg/mL (≈ 11.7 mM), the solubility at 5 min (physchem; glycerol, organic solvent or mixture) was under 2500 µg/mL and the solubility at 5 min (physchem; polyethylene glycol 400, organic solvent or mixture) was under 2500 µg/mL. It also gave a solubility at 5 min (physchem; propylene glycol, organic solvent or mixture) of about 3600 µg/mL (≈ 9.37 mM).
